“Also recorded” adds a separate entry of the source.
Columns and labels:
TRPC5 channel = target: T1, TRPC5 channel (Homo sapiens, UniProt Q9UL62); assay: Assay A: Determination of TRPC5-inhibition (whole-cell patch clamp); assay type: cell-based; conditions: LaCl3-activated current
T1 construct: expressed in transfected cells; host or cells: HEK293 TREx (inducible expression)
T1 sequence (Q9UL62 1-973): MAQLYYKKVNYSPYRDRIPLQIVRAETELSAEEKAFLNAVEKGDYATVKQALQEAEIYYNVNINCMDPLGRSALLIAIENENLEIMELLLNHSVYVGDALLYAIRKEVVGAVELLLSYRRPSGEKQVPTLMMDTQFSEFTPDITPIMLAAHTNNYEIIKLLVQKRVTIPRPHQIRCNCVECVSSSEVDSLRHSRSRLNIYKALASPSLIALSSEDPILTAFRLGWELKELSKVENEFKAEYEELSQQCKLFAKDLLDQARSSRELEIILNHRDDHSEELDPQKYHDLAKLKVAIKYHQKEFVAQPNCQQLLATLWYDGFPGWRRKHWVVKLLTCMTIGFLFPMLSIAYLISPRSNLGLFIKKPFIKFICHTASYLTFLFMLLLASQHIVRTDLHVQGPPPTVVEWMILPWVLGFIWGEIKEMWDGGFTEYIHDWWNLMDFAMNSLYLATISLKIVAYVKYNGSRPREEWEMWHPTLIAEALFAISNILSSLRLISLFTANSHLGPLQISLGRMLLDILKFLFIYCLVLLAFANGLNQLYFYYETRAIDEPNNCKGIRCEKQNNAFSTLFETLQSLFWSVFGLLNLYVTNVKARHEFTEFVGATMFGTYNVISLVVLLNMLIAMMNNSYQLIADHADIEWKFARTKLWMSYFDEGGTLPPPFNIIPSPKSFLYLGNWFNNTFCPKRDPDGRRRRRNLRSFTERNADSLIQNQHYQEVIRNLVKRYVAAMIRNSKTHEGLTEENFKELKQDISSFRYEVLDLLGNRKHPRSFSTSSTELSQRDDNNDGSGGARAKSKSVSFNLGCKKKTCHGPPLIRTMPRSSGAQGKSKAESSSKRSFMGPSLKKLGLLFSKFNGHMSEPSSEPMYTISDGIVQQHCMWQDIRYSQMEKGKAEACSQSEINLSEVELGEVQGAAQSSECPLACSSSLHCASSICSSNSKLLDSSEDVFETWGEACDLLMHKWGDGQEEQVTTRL
Excerpt: Assay A: Determination of TRPC5-Inhibition
Patch clamp experiments permit the detection of currents through the TRPC5 channel in a cell line. In normal whole-cell patch clamp recordings, a glass electrode is brought into contact with a single cell and a high-resistance (gigaohm) seal is established with the cell membrane. The membrane is then ruptured to achieve the whole-cell configuration, permitting control of the voltage of the cell membrane and measurement of currents flowing across the membrane using the amplifier attached to the electrode and resulting in the replacement of cytoplasm with the pipette solution. A perfusion system permits control of the extracellular solution, including the addition of blockers and activators of the current. The current can be activated by including 1.4 μM free Ca2+ in the pipette (intracellular) solution, and 80 μM LaCl3 in the extracellular solution.
TRPC5 cells were induced 20-48 hours, removed from growth plates, and replated at low density (to attain good single-cell physical separation) on glass coverslips for measurement. In some cases, cells were grown in low density overnight on glass coverslips. Patch clamp recordings were made in the whole-cell mode with a holding potential of −40 mV. Every 5 seconds, a voltage ramp was applied from −120 to +100 mV, 400 ms in duration. Currents elicited were quantified at −80 mV and +80 mV. The internal solution consisted of 140 mM cesium aspartate, 10 mM HEDTA, 2 mM CaCl2, 2.27 mM MgCl2 and 10 mM HEPES, pH 7.2, with 1,400 nM calculated free Ca2+. The external solution consisted of 150 mM NaCl, 4.5 mM 15 KCl, 1 mM MgCl2, 2 mM CaCl2, 10 mM HEPES, 10 mM glucose, 1 mM EGTA, pH 7.4. Upon addition of LaCl3, TRPC5 current was induced only in TRPC5-expressing cells and not in parental HEK293 TREx cells. Removal of the LaCh stimulus causes most of the current to go away. Potential blockers were tested for ability to block both inward and outward currents in the continued presence of LaCl3.
IC50 of a compound of the invention was estimated by testing the compound 500 nM. […] Compounds blocking 50% or more at 500 nM are retested at multiple concentrations, and the % block is fitted by standard equations to determine IC50 accurately, using a ⅚ point concentration-response experiment.

hERG channel = target: T2, hERG channel (Homo sapiens, UniProt Q12809); assay: Assay B: Determination of hERG-inhibition (patch-clamp); assay type: cell-based; conditions: patch-clamp per Rast and Guth 2014
T2 construct: expressed in transfected cells
T2 sequence (Q12809 whole entry): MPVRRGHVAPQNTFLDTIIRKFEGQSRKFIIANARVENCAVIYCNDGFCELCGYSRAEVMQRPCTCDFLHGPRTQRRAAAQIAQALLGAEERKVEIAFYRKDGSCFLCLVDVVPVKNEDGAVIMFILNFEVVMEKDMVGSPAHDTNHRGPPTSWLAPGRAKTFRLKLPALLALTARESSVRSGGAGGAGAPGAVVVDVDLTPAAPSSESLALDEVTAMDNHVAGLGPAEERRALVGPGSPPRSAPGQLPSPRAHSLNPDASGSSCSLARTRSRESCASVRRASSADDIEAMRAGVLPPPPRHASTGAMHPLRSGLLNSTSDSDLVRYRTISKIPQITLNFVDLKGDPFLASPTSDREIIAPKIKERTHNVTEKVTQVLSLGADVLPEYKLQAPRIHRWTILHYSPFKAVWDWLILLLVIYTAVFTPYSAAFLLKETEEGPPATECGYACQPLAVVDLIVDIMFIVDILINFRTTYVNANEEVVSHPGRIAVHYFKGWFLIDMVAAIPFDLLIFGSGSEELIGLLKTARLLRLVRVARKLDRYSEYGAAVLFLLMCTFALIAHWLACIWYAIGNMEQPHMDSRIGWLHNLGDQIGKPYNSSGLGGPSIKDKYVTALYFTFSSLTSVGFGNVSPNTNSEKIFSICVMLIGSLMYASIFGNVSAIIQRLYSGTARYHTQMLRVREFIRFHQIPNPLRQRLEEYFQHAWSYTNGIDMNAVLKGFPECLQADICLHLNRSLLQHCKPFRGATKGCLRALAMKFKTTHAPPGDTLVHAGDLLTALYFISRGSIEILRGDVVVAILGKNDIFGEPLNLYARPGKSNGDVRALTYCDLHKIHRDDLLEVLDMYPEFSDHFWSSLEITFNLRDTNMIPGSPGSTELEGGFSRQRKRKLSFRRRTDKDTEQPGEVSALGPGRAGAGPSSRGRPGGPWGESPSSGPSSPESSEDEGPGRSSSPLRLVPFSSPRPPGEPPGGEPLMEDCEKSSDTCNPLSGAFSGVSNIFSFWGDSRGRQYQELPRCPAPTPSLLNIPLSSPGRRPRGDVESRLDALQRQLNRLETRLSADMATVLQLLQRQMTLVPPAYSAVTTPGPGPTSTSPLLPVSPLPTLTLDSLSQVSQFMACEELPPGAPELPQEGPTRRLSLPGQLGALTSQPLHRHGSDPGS
Protocol: Assay B: Determination of hERG-Inhibition
hERG-channel inhibition was determined as described in Rast G, Guth B D, Solubility assessment and on-line exposure confirmation in a patch-clamp assay for hERG (human ether-a-go-go-related gene) potassium channel inhibition, J Pharmacol Toxicol Methods. 2014 September-October; 70(2):182-7.

[1] = compounds of the present invention, TRPC5-expressing HEK293 TREx cells
[2] = compounds of the present invention
[3] = compounds of WO2014/143799, TRPC5-expressing HEK293 TREx cells

SMILES | IC50 (TRPC5 channel; [1]) [nM] | IC50 (hERG channel; [2]) [µM] | also measured
Cn1c(=O)n(CCCO)c(=O)c2c1nc(Oc1cccc(Cl)c1)n2Cc1cccc(Cl)c1 [Compound ID 260 in WO2014/143799, reference compound] |  |  | Assay A TRPC5 inhibition (TRPC5 channel; [3]): potent TRPC5-inhibition; IC50 (TRPC5 channel; [3]): < 10 nM; Assay B hERG inhibition (hERG channel; compounds of WO2014/143799): low μM range; IC50 (hERG channel; compounds of WO2014/143799): 1.9 µM
COc1ccccc1-c1nc2c(c(=O)n(CCCO)c(=O)n2C)n1Cc1ccc(F)cc1 [Compound ID 415 in WO2014/143799, reference compound] |  |  | Assay A TRPC5 inhibition (TRPC5 channel; [3]): agonism (activation); also recorded: Agonist; IC50 (hERG channel; compounds of WO2014/143799): > 10 µM
CC(C)n1c(=O)n(CCCO)c(=O)c2c1nc(-c1cccnc1OCC1CC1)n2Cc1cc(F)cc(F)c1 [Example 1] | < 10 | > 10 | 
CC(C)n1c(=O)n(CCCO)c(=O)c2c1nc(-c1cccnc1OCC1CC1)n2Cc1ccc(C(F)(F)F)cc1 [Example 2] | < 10 | 8.3 | 
CC(C)n1c(=O)n(CCCO)c(=O)c2c1nc(-c1cccnc1OCC1CC1)n2Cc1ccc(F)c(F)c1 [Example 3] | < 10 | > 10 | 
Cc1ccc(Cn2c(-c3cccnc3OCC3CC3)nc3c2c(=O)n(CCCO)c(=O)n3C(C)C)cc1 [Example 4] | < 10 | > 10 | 
CC(C)n1c(=O)n(CCCO)c(=O)c2c1nc(-c1cccnc1OCC1CC1)n2Cc1ccc(Cl)cc1 [Example 5] | < 10 | > 10 | 
CC(C)n1c(=O)n(CCCO)c(=O)c2c1nc(-c1cccnc1OCC1CC1)n2Cc1ccc(F)cc1 [Example 6] | < 10 | > 10 | 
CC(C)n1c(=O)n(CCCO)c(=O)c2c1nc(-c1ccc(F)nc1OCC1CC1)n2Cc1ccc(F)cc1 [Example 7] | < 10 | > 10 | 
CC(C)n1c(=O)n(CCCO)c(=O)c2c1nc(-c1cccnc1OCC1CC1)n2Cc1ccc(Cl)cn1 [Example 8] | < 10 | > 10 | 
CC(C)n1c(=O)n(CCCO)c(=O)c2c1nc(-c1nccnc1OCC1CC1)n2Cc1ccccc1 [Example 9] | < 10 | > 10 | 
CC(C)n1c(=O)n(CCCO)c(=O)c2c1nc(-c1ccc(F)nc1OCC1CC1)n2Cc1ccccc1 [Example 10] | < 10 | > 10 | 
CCn1c(=O)n(CCCO)c(=O)c2c1nc(-c1nccnc1OCC1CC1)n2Cc1ccccc1 [Example 11] | < 10 | > 10 | 
Cn1c(=O)n(CCCO)c(=O)c2c1nc(-c1nccnc1OCC1CC1)n2Cc1ccc(Cl)cc1 [Example 12] | < 10 | > 10 | 
Cc1ccc(-c2nc3c(c(=O)n(CCCO)c(=O)n3C(C)C)n2Cc2ccccc2)c(OCC2CC2)n1 [Example 13] | < 10 | > 10 | 
Cc1nc(OCC2CC2)c(-c2nc3c(c(=O)n(CCCO)c(=O)n3C(C)C)n2Cc2ccc(F)cc2)cc1F [Example 14] | < 10 | 5.8 | 
Cc1nc(OCC2CC2)c(-c2nc3c(c(=O)n(CCCO)c(=O)n3C(C)C)n2Cc2ccccc2)cc1F [Example 15] | < 10 | 5.8 | 
CC(C)n1c(=O)n(CCCO)c(=O)c2c1nc(-c1cc(F)cnc1OCC1CC1)n2Cc1ccccc1 [Example 16] | < 10 | > 10 | 
CC(C)n1c(=O)n(CCCO)c(=O)c2c1nc(-c1cc(F)cnc1OCC1CC1)n2Cc1ccc(F)cc1 [Example 17] | < 10 | > 10 | 

More lines, main results first:

IC50 (TRPC5 channel; [1]) [nM] | SMILES | IC50 (hERG channel; [2]) [µM] | also measured
< 10 | CC(C)n1c(=O)n(CCCO)c(=O)c2c1nc(-c1cccnc1OC[C@H]1CC1(F)F)n2Cc1ccc(F)cc1 (single isomer, unassigned) [Example 21] | > 10 | 
< 10 | CC(C)n1c(=O)n(CCCO)c(=O)c2c1nc(-c1cccnc1OC[C@@H]1CC1(F)F)n2Cc1ccc(F)cc1 (single isomer, unassigned) [Example 22] | > 10 | 
< 10 | CC(C)n1c(=O)n(CCCO)c(=O)c2c1nc(-c1cccnc1OCC1CC1)n2Cc1ccccc1 [Example 18] | > 10 | 
< 10 | CC(C)n1c(=O)n(CCCO)c(=O)c2c1nc(-c1cccnc1OC[C@@H]1CC1(F)F)n2Cc1ccccc1 [Example 19] | > 10 | 
< 10 | CC(C)n1c(=O)n(CCCO)c(=O)c2c1nc(-c1cccnc1OC[C@H]1CC1(F)F)n2Cc1ccccc1 [Example 20] | > 10 | 
< 10 | CC(C)n1c(=O)n(CC[C@@H](C)O)c(=O)c2c1nc(-c1cccnc1OCC1CC1)n2Cc1ccccc1 [Example 23] | > 10 | 
< 10 | CC(C)n1c(=O)n(CC[C@@H](C)O)c(=O)c2c1nc(-c1cccnc1OCC1CC1)n2Cc1ccc(F)cc1 [Example 24] | > 10 | 
< 10 | CC(C)n1c(=O)n(CC[C@@H](C)O)c(=O)c2c1nc(-c1cccnc1OCC1CC1)n2Cc1ccc(Cl)cc1 [Example 25] | 7.6 | 
